The values that follow come from ChEMBL document CHEMBL3044825, “Synthesis and in vitro microbial activities of amides of pyridoquinolone” (2011).

Type in all cases: functional
Common to all, as to conditions: read-out: IZ

For one assay, the system named is Escherichia coli. Briefly: Antibacterial activity against Escherichia coli at 100 ug/ml by cup-plate method.
Another assay has as its system Pseudomonas aeruginosa. Kind of assay: Antibacterial activity against Pseudomonas aeruginosa at 100 ug/ml by cup-plate method.
The next assay has as its system Staphylococcus aureus. Kind of assay: Antibacterial activity against Staphylococcus aureus at 100 ug/ml by cup-plate method.
Another assay relates to Bacillus subtilis. Briefly: Antibacterial activity against Bacillus subtilis at 100 ug/ml by cup plate method.
A further assay concerns Candida albicans. Kind of assay: Antifungal activity against Candida albicans at 100 ug/ml by cup-plate method.

As for `Cc1ccc(NS(=O)(=O)c2ccc(NC(=O)c3cn(CCO)c4c(cc(O)c5ncccc54)c3=O)cc2)cc1`, the zone of inhibition at 100 µg/mL with Escherichia coli is 5 mm; in the assay on Pseudomonas aeruginosa, 0 mm; in the assay with Staphylococcus aureus, 5 mm; in the assay with Bacillus subtilis it was 6 mm; in the assay with Candida albicans, 0 mm.

As to `O=C(NC(=S)Nc1ccccc1[N+](=O)[O-])c1cn(CCO)c2c(cc(O)c3ncccc32)c1=O`, the zone of inhibition at 100 µg/mL turned out to be 5 mm in the assay on Escherichia coli; 4 mm in the assay on Pseudomonas aeruginosa; 0 mm in the assay on Staphylococcus aureus; 5 mm in the assay with Bacillus subtilis; 1 mm with Candida albicans.

Turning to `O=C(NC(=S)Nc1cccc([N+](=O)[O-])c1)c1cn(CCO)c2c(cc(O)c3ncccc32)c1=O`, the zone of inhibition at 100 µg/mL was determined as 9 mm with Escherichia coli; 10 mm in the assay with Pseudomonas aeruginosa; 7 mm in the assay on Staphylococcus aureus; 7 mm in the assay on Bacillus subtilis; 0 mm in the assay on Candida albicans.

Take `Cc1ccccc1NC(=S)NC(=O)c1cn(CCO)c2c(cc(O)c3ncccc32)c1=O`: the zone of inhibition at 100 µg/mL with Escherichia coli was 6 mm; in the assay with Pseudomonas aeruginosa, 0 mm; with Staphylococcus aureus it was 5 mm; with Bacillus subtilis, 7 mm; in the assay with Candida albicans, 0 mm.

As to `Cc1ccc(NC(=S)NC(=O)c2cn(CCO)c3c(cc(O)c4ncccc43)c2=O)cc1`, the zone of inhibition at 100 µg/mL was determined as 6 mm with Escherichia coli; 4 mm in the assay with Pseudomonas aeruginosa; 0 mm in the assay on Staphylococcus aureus; 6 mm in the assay with Bacillus subtilis; 1 mm in the assay on Candida albicans.

In the case of `COc1ccccc1NC(=S)NC(=O)c1cn(CCO)c2c(cc(Cl)c3ncccc32)c1=O`, the zone of inhibition at 100 µg/mL in the assay on Escherichia coli stood at 5 mm; with Pseudomonas aeruginosa it was 3 mm; with Staphylococcus aureus, 0 mm; in the assay with Bacillus subtilis it was 6 mm; in the assay on Candida albicans it was 0 mm.

For `O=C(NC(=S)Nc1cccc([N+](=O)[O-])c1)c1cn(CCO)c2c(cc(Cl)c3ncccc32)c1=O`, the zone of inhibition at 100 µg/mL with Escherichia coli was determined as 0 mm; with Pseudomonas aeruginosa, 8 mm; in the assay with Staphylococcus aureus, 8 mm; in the assay on Bacillus subtilis, 6 mm; in the assay on Candida albicans, 1 mm.

As to `Cc1ccc(NC(=S)NC(=O)c2cn(CCO)c3c(cc(Cl)c4ncccc43)c2=O)cc1`, the zone of inhibition at 100 µg/mL was determined as 6 mm with Escherichia coli; 0 mm in the assay on Pseudomonas aeruginosa; 6 mm in the assay with Staphylococcus aureus; 6 mm in the assay with Bacillus subtilis; 0 mm in the assay on Candida albicans.

Take `O=C(NC(=S)Nc1ccc(O)cc1)c1cn(CCO)c2c(cc(O)c3ncccc32)c1=O`: the zone of inhibition at 100 µg/mL in the assay with Escherichia coli amounted to 6 mm; in the assay on Pseudomonas aeruginosa, 6 mm; with Staphylococcus aureus, 6 mm; with Bacillus subtilis it was 7 mm; with Candida albicans it was 0 mm.

As for `COc1ccccc1NC(=S)NC(=O)c1cn(CCO)c2c(cc(O)c3ncccc32)c1=O`, the zone of inhibition at 100 µg/mL is 0 mm with Escherichia coli; 4 mm with Pseudomonas aeruginosa; 4 mm in the assay on Staphylococcus aureus; 0 mm in the assay with Bacillus subtilis; 0 mm in the assay on Candida albicans.

`Cc1ccc(NS(=O)(=O)c2ccc(NC(=O)c3cn(CCO)c4c(cc(Cl)c5ncccc54)c3=O)cc2)cc1`: the zone of inhibition at 100 µg/mL in the assay with Escherichia coli stood at 5 mm; in the assay on Pseudomonas aeruginosa, 7 mm; in the assay with Staphylococcus aureus it was 5 mm; with Bacillus subtilis, 6 mm; in the assay on Candida albicans, 1 mm.

For the molecule `O=C(Nc1ccc(S(=O)(=O)Nc2ccc(Cl)cc2)cc1)c1cn(CCO)c2c(cc(O)c3ncccc32)c1=O`, the zone of inhibition at 100 µg/mL with Escherichia coli was determined as 4 mm; in the assay on Pseudomonas aeruginosa, 4 mm; in the assay on Staphylococcus aureus it was 0 mm; in the assay on Bacillus subtilis, 6 mm; with Candida albicans it was 0 mm.

In the case of `COc1ccccc1NS(=O)(=O)c1ccc(NC(=O)c2cn(CCO)c3c(cc(O)c4ncccc43)c2=O)cc1`, the zone of inhibition at 100 µg/mL was found to be 0 mm with Escherichia coli; 6 mm in the assay with Pseudomonas aeruginosa; 6 mm with Staphylococcus aureus; 8 mm in the assay on Bacillus subtilis; 1 mm in the assay with Candida albicans.

With `Cc1ccccc1NS(=O)(=O)c1ccc(NC(=O)c2cn(CCO)c3c(cc(O)c4ncccc43)c2=O)cc1`, the zone of inhibition at 100 µg/mL in the assay on Escherichia coli amounted to 0 mm; in the assay on Pseudomonas aeruginosa, 4 mm; in the assay on Staphylococcus aureus, 4 mm; in the assay on Bacillus subtilis it was 6 mm; in the assay with Candida albicans, 0 mm.

As for `O=C(Nc1cccc([N+](=O)[O-])c1)c1cn(CCO)c2c(cc(O)c3ncccc32)c1=O`, the zone of inhibition at 100 µg/mL is 8 mm in the assay with Escherichia coli; 10 mm in the assay with Pseudomonas aeruginosa; 7 mm with Staphylococcus aureus; 8 mm in the assay on Bacillus subtilis; 2 mm in the assay with Candida albicans.

As for `O=C(Nc1ccc([N+](=O)[O-])cc1)c1cn(CCO)c2c(cc(O)c3ncccc32)c1=O`, the zone of inhibition at 100 µg/mL in the assay with Escherichia coli was 6 mm; in the assay with Pseudomonas aeruginosa, 6 mm; with Staphylococcus aureus it was 8 mm; with Bacillus subtilis, 7 mm; in the assay with Candida albicans, 0 mm.

In the case of `Cc1cccc(NC(=O)c2cn(CCO)c3c(cc(O)c4ncccc43)c2=O)c1`, the zone of inhibition at 100 µg/mL is 0 mm with Escherichia coli; 6 mm with Pseudomonas aeruginosa; 5 mm with Staphylococcus aureus; 6 mm in the assay with Bacillus subtilis; 1 mm in the assay on Candida albicans.

With `Cc1ccc(C)c(NC(=O)c2cn(CCO)c3c(cc(O)c4ncccc43)c2=O)c1`, the zone of inhibition at 100 µg/mL in the assay on Escherichia coli was determined as 9 mm; with Pseudomonas aeruginosa, 8 mm; with Staphylococcus aureus it was 8 mm; with Bacillus subtilis it was 9 mm; with Candida albicans it was 2 mm.

For the molecule `O=C(Nc1ccc(S(=O)(=O)Nc2ccccc2)cc1)c1cn(CCO)c2c(cc(Cl)c3ncccc32)c1=O`, the zone of inhibition at 100 µg/mL was 6 mm in the assay with Escherichia coli; 7 mm with Pseudomonas aeruginosa; 8 mm in the assay with Staphylococcus aureus; 10 mm in the assay on Bacillus subtilis; 2 mm in the assay on Candida albicans.

On to `O=C(Nc1ccc(S(=O)(=O)Nc2ccc(Cl)cc2)cc1)c1cn(CCO)c2c(cc(Cl)c3ncccc32)c1=O`, for which the zone of inhibition at 100 µg/mL with Escherichia coli is 8 mm; with Pseudomonas aeruginosa, 0 mm; with Staphylococcus aureus it was 6 mm; with Bacillus subtilis it was 7 mm; in the assay on Candida albicans, 1 mm.

With `O=C(Nc1ccc(S(=O)(=O)Nc2cccc([N+](=O)[O-])c2)cc1)c1cn(CCO)c2c(cc(Cl)c3ncccc32)c1=O`, the zone of inhibition at 100 µg/mL in the assay with Escherichia coli was 7 mm; in the assay on Pseudomonas aeruginosa, 5 mm; in the assay on Staphylococcus aureus, 6 mm; in the assay on Bacillus subtilis, 8 mm; in the assay with Candida albicans, 2 mm.

For the molecule `Cc1cccc(NS(=O)(=O)c2ccc(NC(=O)c3cn(CCO)c4c(cc(Cl)c5ncccc54)c3=O)cc2)c1`, the zone of inhibition at 100 µg/mL was 0 mm with Escherichia coli; 4 mm with Pseudomonas aeruginosa; 0 mm in the assay on Staphylococcus aureus; 6 mm in the assay with Bacillus subtilis; 0 mm in the assay on Candida albicans.

Take `COc1ccc(NC(=O)c2cn(CCO)c3c(cc(Cl)c4ncccc43)c2=O)cc1`: the zone of inhibition at 100 µg/mL in the assay on Escherichia coli worked out at 0 mm; in the assay with Pseudomonas aeruginosa, 6 mm; in the assay on Staphylococcus aureus, 6 mm; in the assay on Bacillus subtilis, 6 mm; in the assay with Candida albicans it was 2 mm.

As for `Cc1ccccc1NC(=O)c1cn(CCO)c2c(cc(Cl)c3ncccc32)c1=O`, the zone of inhibition at 100 µg/mL turned out to be 7 mm in the assay on Escherichia coli; 4 mm with Pseudomonas aeruginosa; 0 mm with Staphylococcus aureus; 5 mm in the assay on Bacillus subtilis; 0 mm in the assay on Candida albicans.

Consider `Cc1ccc(NC(=O)c2cn(CCO)c3c(cc(Cl)c4ncccc43)c2=O)cc1`, for which the zone of inhibition at 100 µg/mL worked out at 4 mm with Escherichia coli; 5 mm in the assay with Pseudomonas aeruginosa; 5 mm in the assay on Staphylococcus aureus; 7 mm with Bacillus subtilis; 0 mm in the assay on Candida albicans.

With `Cc1ccc(C)c(NC(=O)c2cn(CCO)c3c(cc(Cl)c4ncccc43)c2=O)c1`, the zone of inhibition at 100 µg/mL in the assay on Escherichia coli came out at 10 mm; with Pseudomonas aeruginosa it was 8 mm; with Staphylococcus aureus, 8 mm; in the assay on Bacillus subtilis it was 9 mm; in the assay with Candida albicans it was 0 mm.

In the case of `O=C(Nc1ccccc1)c1cn(CCO)c2c(cc(O)c3ncccc32)c1=O`, the zone of inhibition at 100 µg/mL with Escherichia coli was 8 mm; in the assay on Pseudomonas aeruginosa, 8 mm; in the assay with Staphylococcus aureus it was 7 mm; with Bacillus subtilis it was 6 mm; in the assay with Candida albicans it was 1 mm.

For the molecule `O=C(Nc1cccc(Cl)c1)c1cn(CCO)c2c(cc(O)c3ncccc32)c1=O`, the zone of inhibition at 100 µg/mL worked out at 4 mm in the assay on Escherichia coli; 4 mm in the assay with Pseudomonas aeruginosa; 0 mm in the assay with Staphylococcus aureus; 6 mm in the assay on Bacillus subtilis; 0 mm in the assay with Candida albicans.

On to `COc1ccccc1NC(=O)c1cn(CCO)c2c(cc(O)c3ncccc32)c1=O`, for which the zone of inhibition at 100 µg/mL was 6 mm in the assay with Escherichia coli; 0 mm with Pseudomonas aeruginosa; 6 mm with Staphylococcus aureus; 8 mm in the assay on Bacillus subtilis; 1 mm in the assay on Candida albicans.
